Reference: ChEMBL document CHEMBL5584243, “Discovery of JNJ-74856665: A Novel Isoquinolinone DHODH Inhibitor for the Treatment of AML” (J Med Chem, 2024)
≈ marks a conversion by molar mass, not a printed value.

Tests used:
[1] = Cmax in C57BL mouse at […] measured upto 24 hrs by LC-MS/MS analysis; format: ADME, organism-based; conditions: in vivo
[2] = Oral bioavailability in C57BL mouse at 10 mg/kg measured upto 24 hrs by LC-MS/MS analysis; format: ADME, organism-based; conditions: in vivo
[3] = Plasma protein binding in human at 1 uM incubated for 6.5 hrs by LC-MS/MS analysis; format: ADME, cell-free; conditions: read-out: PPB (converted)
[4] = Equilibrium solubility of compound in SGF at pH 1 using amorphous form of sample incubated for 2 to 5 days by HPLC analysis; format: ADME; conditions: time 2-5 day
[5] = AUC (0 to infinity) in C57BL mouse at 2 mg/kg,iv measured upto 24 hrs by LC-MS/MS analysis; format: ADME, organism-based; conditions: in vivo
[6] = Metabolic stability in mouse liver microsomes assessed as half life incubated upto 60 mins in presence of NADPH by LC-MS/MS analysis; format: ADME, Microsome
[7] = Equilibrium solubility of compound in FaSSIF at pH 6.5 using amorphous form of sample incubated for 2 to 5 days by HPLC analysis; format: ADME; conditions: time 2-5 day
[8] = Plasma protein binding in C57BL mouse at 1 uM incubated for 6.5 hrs by LC-MS/MS analysis; format: ADME, cell-free; conditions: read-out: PPB (converted)
[9] = Volume of distribution at steady state in C57BL mouse at 2 mg/kg,iv measured upto 24 hrs by LC-MS/MS analysis; format: ADME, organism-based; conditions: in vivo, read-out: Vdss
[10] = Equilibrium solubility of compound in PBS at pH 7 incubated for 2 to 5 days by HPLC analysis; format: physicochemical; conditions: time 2-5 day
[11] = Equilibrium solubility of compound in PBS at pH 2 incubated for 2 to 5 days by HPLC analysis; format: physicochemical; conditions: time 2-5 day; for solubility thermodynamic: PBS
[12] = Metabolic stability in human liver microsomes assessed as half life incubated upto 60 mins in presence of NADPH by LC-MS/MS analysis; format: ADME, Microsome
[13] = Half life in C57BL mouse at 2 mg/kg,iv measured upto 24 hrs by LC-MS/MS analysis; format: ADME, organism-based; conditions: in vivo
[14] = Passive permeability across apical to basolateral side in dog MDCK-MDR1 cells; format: ADME, cell-based, Canis lupus familiaris
[15] = Tmax in C57BL mouse at […] measured upto 24 hrs by LC-MS/MS analysis; format: ADME, organism-based; conditions: in vivo
MOLM-13 [16] = experiment: Antiproliferative activity against human MOLM-13 cells assessed as inhibition of cell growth incubated for 72 hrs by CellTiter-Glo assay; format: functional, cell-based; conditions: MOLM-13, 72 h
[17] = molecular target: T1, Aryl hydrocarbon receptor (Homo sapiens, UniProt P35869); experiment: Activation of AhR (unknown origin) at 1 to 10 uM; conditions: dose 1-10 µM
T1 sequence (P35869 whole entry): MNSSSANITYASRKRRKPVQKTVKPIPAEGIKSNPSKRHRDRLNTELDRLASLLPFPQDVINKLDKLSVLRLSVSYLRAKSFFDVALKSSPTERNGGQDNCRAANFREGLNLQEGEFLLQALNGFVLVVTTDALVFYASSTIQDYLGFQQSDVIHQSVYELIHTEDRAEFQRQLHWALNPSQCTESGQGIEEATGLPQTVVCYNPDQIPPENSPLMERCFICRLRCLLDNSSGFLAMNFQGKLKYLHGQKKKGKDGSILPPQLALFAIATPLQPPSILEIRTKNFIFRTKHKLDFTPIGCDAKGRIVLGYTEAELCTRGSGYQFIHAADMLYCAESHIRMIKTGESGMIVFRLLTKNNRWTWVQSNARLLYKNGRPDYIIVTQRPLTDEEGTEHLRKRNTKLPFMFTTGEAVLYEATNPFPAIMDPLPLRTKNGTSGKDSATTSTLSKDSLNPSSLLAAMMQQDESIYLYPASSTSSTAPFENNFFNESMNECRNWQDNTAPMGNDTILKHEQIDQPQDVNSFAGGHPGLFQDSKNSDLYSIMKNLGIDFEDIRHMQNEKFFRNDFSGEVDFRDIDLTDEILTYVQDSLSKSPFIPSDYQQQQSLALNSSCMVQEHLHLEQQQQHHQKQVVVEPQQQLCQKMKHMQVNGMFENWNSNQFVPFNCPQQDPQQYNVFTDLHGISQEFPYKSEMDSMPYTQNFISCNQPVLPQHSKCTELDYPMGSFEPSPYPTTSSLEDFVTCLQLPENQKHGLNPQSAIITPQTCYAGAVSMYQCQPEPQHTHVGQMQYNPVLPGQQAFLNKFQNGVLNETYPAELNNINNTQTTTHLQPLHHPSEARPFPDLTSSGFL

[18] = Equilibrium solubility of compound in SGF at pH 1 using crystalline form incubated for 2 to 5 days by HPLC analysis; format: ADME; conditions: time 2-5 day
[19] = Lipophilicity, logD of compound; format: physicochemical; conditions: octanol/water
MOLM-13 [20] = experiment: Antitumor activity against human MOLM-13 cells xenografted in NSG mouse assessed as tumor growth inhibition at po administrated for 21 days; format: functional, organism-based; conditions: time 21.0 day
[21] = Equilibrium solubility of compound in FaSSIF at pH 6.5 using crystalline form incubated for 2 to 5 days by HPLC analysis; format: ADME; conditions: time 2-5 day
MOLM-13 [22] = experiment: Antitumor activity against human MOLM-13 cells xenografted in NSG mouse assessed as tumor growth inhibition at 0.625 to 2.5 mg/kg,po administrated for 21 days relative to control; format: functional; conditions: dose 0.625-2.5 mg/kg, time 21 day
[23] = molecular target: Dihydroorotate dehydrogenase (quinone), mitochondrial (Homo sapiens, UniProt Q02127); experiment: Inhibition of recombinant human DHODH followed by DHO substrate by DCIP dye absorbance based spectrophotometric analysis
Sequence of Dihydroorotate dehydrogenase (quinone), mitochondrial (Q02127 whole entry): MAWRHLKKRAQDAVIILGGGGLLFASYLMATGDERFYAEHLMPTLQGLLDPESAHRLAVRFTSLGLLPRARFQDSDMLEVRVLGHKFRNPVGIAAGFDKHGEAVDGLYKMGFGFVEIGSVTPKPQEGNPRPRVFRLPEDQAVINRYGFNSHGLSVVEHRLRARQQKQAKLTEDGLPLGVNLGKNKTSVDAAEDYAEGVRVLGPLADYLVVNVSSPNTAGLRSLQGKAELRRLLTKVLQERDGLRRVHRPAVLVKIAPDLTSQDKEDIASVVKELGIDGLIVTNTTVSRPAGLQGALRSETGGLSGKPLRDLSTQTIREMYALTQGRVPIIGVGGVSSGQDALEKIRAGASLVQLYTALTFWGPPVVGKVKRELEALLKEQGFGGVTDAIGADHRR

Compound	half-life [6] [h]	solubility thermodynamic [10] [µM]	half-life [12] [h]	Papp A→B [14] [×10⁻⁶ cm/s]	IC50 (MOLM-13 [16]) [nM]	solubility thermodynamic [11] [µM]	further results
CCn1c(CO)nn(-c2cc3c(C(C)C)cn(-c4ccccc4C(F)(F)F)c(=O)c3cc2F)c1=O	> 3	39 (≈ 19.1 µg/mL)	> 3	40.4	0.63	–	Cmax [1]: 5700 ng/mL; bioavailability [2]: 127%; fraction unbound at 6.5 h, 1 µM [3]: 0.063; solubility thermodynamic [4]: 17 µg/mL (≈ 34.7 µM); AUC [5]: 71100 ng·h/mL; solubility thermodynamic [7]: 97 µg/mL (≈ 198 µM); fraction unbound at 6.5 h, 1 µM [8]: 0.067; Vd [9]: 1.2 L/kg; solubility ([11]; buffer): Not Active; half-life [13]: 4.3 h; Tmax [15]: 1.3 h
C=C(C)c1cn(-c2c(F)cccc2Cl)c(=O)c2cc(F)c(-n3nc(CO)n(CC)c3=O)nc12	–	–	–	–	1.1	–	–
Cc1oncc1C(=O)Nc1ccc(C(F)(F)F)cc1 [LEFLUNOMIDE]	–	–	–	–	–	–	Activity [17]: Active
CCn1c(CO)nn(-c2cc3c(C(C)C)cn(-c4c(C)cnc(OC)c4Cl)c(=O)c3cc2F)c1=O	> 3	21 (≈ 10.5 µg/mL)	> 3	42.6	2.4	78 (≈ 39.2 µg/mL)	Cmax [1]: 4100 ng/mL; bioavailability [2]: 109%; fraction unbound at 6.5 h, 1 µM [3]: 0.059; solubility thermodynamic [4]: < 5 µg/mL; AUC [5]: 82500 ng·h/mL; solubility thermodynamic [7]: 16 µg/mL (≈ 31.9 µM); fraction unbound at 6.5 h, 1 µM [8]: 0.038; Vd [9]: 2.1 L/kg; half-life [13]: 7 h; Tmax [15]: 1.5 h
CCn1c(CO)nn(-c2cc3c(C(C)C)cn(-c4ccccc4C(F)F)c(=O)c3cc2F)c1=O	> 3	11 (≈ 5.2 µg/mL)	2.98	39	0.56	228 (≈ 108 µg/mL)	–
CCc1ccccc1-n1cc(C(C)C)c2cc(-n3nc(CO)n(CC)c3=O)c(F)cc2c1=O	1.83	157 (≈ 70.7 µg/mL)	> 3	37.3	1.8	193 (≈ 86.9 µg/mL)	–
CCn1c(CO)nn(-c2cc3c([C@H](C)C(F)(F)F)cn(-c4ccccc4C)c(=O)c3cc2F)c1=O	> 3	180 (≈ 88.3 µg/mL)	> 3	20.3	0.59	164 (≈ 80.4 µg/mL)	–
CCn1c(CO)nn(-c2cc3c(C4(C)CC4)cn(-c4c(F)cccc4Cl)c(=O)c3cc2F)c1=O	–	–	–	–	3.1	–	–
CCn1c(CO)nn(-c2cc3c(C(C)C)cn(-c4cccc(F)c4C)c(=O)c3cc2F)c1=O	> 3	189 (≈ 85.9 µg/mL)	> 3	23.5	5.6	235 (≈ 107 µg/mL)	–
CCn1c(CO)nn(-c2cc3c(C(C)C)cn(-c4cc(F)ccc4C)c(=O)c3cc2F)c1=O	> 3	30 (≈ 13.6 µg/mL)	> 3	45.9	0.86	30 (≈ 13.6 µg/mL)	–
CCn1c(CO)nn(-c2cc3c(C(C)C)cn(-c4c(F)cccc4Cl)c(=O)c3cc2F)c1=O	> 3	< 4	> 3	24.5	0.22	< 4	Cmax [1]: 8200 ng/mL; bioavailability [2]: 135%; fraction unbound at 6.5 h, 1 µM [3]: 0.042; solubility thermodynamic [18]: < 5 µg/mL; AUC [5]: 71800 ng·h/mL; logD [19]: 3.1; Activity (MOLM-13 [20]): Dose-Dependent Effect; fraction unbound at 6.5 h, 1 µM [8]: 0.024; Vd [9]: 1.3 L/kg; half-life [13]: 5.1 h; solubility thermodynamic [21]: < 5 µg/mL; Tmax [15]: 0.83 h; TGI (MOLM-13 [22]): >80%
CCn1c(CO)nn(-c2cc3c(C(C)C)cn(-c4ccccc4OC)c(=O)c3cc2F)c1=O	> 3	20 (≈ 9.05 µg/mL)	> 3	25.1	1	19 (≈ 8.6 µg/mL)	–
CCn1c(CO)nn(-c2nc3c(C(C)C)cn(-c4c(F)cccc4Cl)c(=O)c3cc2F)c1=O	–	–	–	–	0.44	–	–
CCn1c(CO)nn(-c2cc3c([C@@H](C)C(F)(F)F)cn(-c4ccccc4C)c(=O)c3cc2F)c1=O	> 3	181 (≈ 88.8 µg/mL)	> 3	< 41	0.42	184 (≈ 90.2 µg/mL)	Cmax [1]: 4500 ng/mL; bioavailability [2]: 98%; fraction unbound at 6.5 h, 1 µM [3]: 0.1; solubility thermodynamic [4]: < 5 µg/mL; AUC [5]: 39000 ng·h/mL; solubility thermodynamic [7]: 41 µg/mL (≈ 83.6 µM); logD [19]: 2.6; fraction unbound at 6.5 h, 1 µM [8]: 0.093; Vd [9]: 1.3 L/kg; half-life [13]: 4 h; Tmax [15]: 1.5 h
CCn1c(CO)nn(-c2nc(OC(C)C(F)(F)F)c(C(=O)Nc3c(F)cccc3Cl)cc2F)c1=O (stereo unspecified)	–	< 4	–	–	0.16	–	IC50 [23]: 0.2 nM
CCn1c(CO)nn(-c2cc3c(C(C)C)cn(-c4c(C)cccc4F)c(=O)c3cc2F)c1=O	> 3	24 (≈ 10.9 µg/mL)	> 3	47.4	0.69	23 (≈ 10.5 µg/mL)	–
CCn1c(CO)nn(-c2cc3c(C(C)C)cn(-c4ccc(F)cc4C)c(=O)c3cc2F)c1=O	> 3	266 (≈ 121 µg/mL)	> 3	48.2	0.67	25 (≈ 11.4 µg/mL)	logD [19]: 2.7
CCn1c(CO)nn(-c2cc3c(C(C)C)cn(-c4ccccc4F)c(=O)c3cc2F)c1=O	> 3	19 (≈ 8.37 µg/mL)	> 3	30.1	2.1	19 (≈ 8.37 µg/mL)	–
CCn1c(CO)nn(-c2cc3c(C(C)C)cn(-c4ccccc4Cl)c(=O)c3cc2F)c1=O	> 3	155 (≈ 70.8 µg/mL)	> 3	50.7	0.28	153 (≈ 69.9 µg/mL)	–
